This is an account of results in patent US6432922B1 (Corvas International, Inc., priority 1998, dated 2002).

Broadly, the IC50 is the midpoint of a concentration-inhibition curve.

One test addresses T1, Human rt-PA (Activase) (Homo sapiens, UniProt P00750).
T1 construct: purchased Genentech Inc
As to the kind of experiment: Recombinant tissue plasminogen activator (rt-PA) chromogenic assay. Type of test: biochemical. The following applies: 30 minute preincubation, HBSA buffer; read-out: tPA IC50. As for the experimental part: rt-PA catalytic activity was determined using the substrate, Pefachrome t-PA (CH3SO2-D-hexahydrotyrosine-glycyl-L-arginine-p-nitroaniline, obtained from Pentap harm Ltd.). The substrate was made up in deionized water followed by dilution in HBSA prior to the assay in which the final concentration was 500 micromolar (about 3-times Km). Human rt-PA (Activase®) was obtained from Genentech Inc. The enzyme was reconstituted in deionized water and diluted into HBSA prior to the assay in which the final concentration was 1.0 nM.

The target of a further test is T2, human plasmin (Homo sapiens, UniProt P00747).
T2 construct: purchased Enzyme Research Laboratories, Inc
T2 sequence (P00747 581-810 limits assumed): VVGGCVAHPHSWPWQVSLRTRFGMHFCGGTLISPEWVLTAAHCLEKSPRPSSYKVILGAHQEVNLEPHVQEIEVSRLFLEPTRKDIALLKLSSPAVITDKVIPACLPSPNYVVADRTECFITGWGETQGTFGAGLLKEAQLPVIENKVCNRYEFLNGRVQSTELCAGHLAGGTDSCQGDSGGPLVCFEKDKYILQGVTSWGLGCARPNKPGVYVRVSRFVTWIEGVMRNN
T2 sequence (P00747 97-580 partner limits assumed): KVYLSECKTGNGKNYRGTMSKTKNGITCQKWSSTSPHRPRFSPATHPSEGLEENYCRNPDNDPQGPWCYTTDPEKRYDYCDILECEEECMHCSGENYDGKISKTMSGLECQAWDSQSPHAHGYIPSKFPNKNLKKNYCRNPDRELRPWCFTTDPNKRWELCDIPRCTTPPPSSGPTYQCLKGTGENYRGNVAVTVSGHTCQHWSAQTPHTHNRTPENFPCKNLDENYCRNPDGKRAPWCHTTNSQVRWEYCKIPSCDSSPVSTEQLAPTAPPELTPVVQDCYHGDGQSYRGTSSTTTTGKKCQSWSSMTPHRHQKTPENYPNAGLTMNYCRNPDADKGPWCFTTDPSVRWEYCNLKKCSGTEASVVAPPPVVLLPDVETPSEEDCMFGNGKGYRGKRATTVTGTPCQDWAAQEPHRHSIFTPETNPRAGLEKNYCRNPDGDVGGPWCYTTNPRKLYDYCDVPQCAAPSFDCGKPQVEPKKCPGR
As to the kind of experiment: Plasmin chromogenic substrate (S-2366) assay. It counts as biochemical. The following applies: 30 minute preincubation, HBSA buffer. The procedure:
The substrate was made up in deionized water followed by dilution in HBSA prior to the assay in which the final concentration was 300 micromolar (about 2.5-times Km). Purified human plasmin was obtained from Enzyme Research Laboratories, Inc. The enzyme was diluted into HBSA prior to assay in which the final concentration was 1.0 nM.

In test [1] the test system is bFGF-induced angiogenesis on the CAM of chick embryos. Put plainly: Chicken CAM model of bFGF-induced angiogenesis. Type of test: in vivo. The following applies: for Angiogenic Index / # of Blood Vessel Branch Points: bFGF; for Angiogenic Index: difference in branch points vs untreated control embryos; for # of Blood Vessel Branch Points: single administration. The source says: A test compound can either be added to the filter disc that contains the angiogenesis inducer, be placed directly on the membrane or be administered systemically. The extent of new blood vessel formation in the presence and/or absence of test compound can be compared using this model. The formation of fewer new blood vessels in the presence of a test compound would be indicative of anti-angiogenesis activity.
The chicken CAM (chick embryo chorioallantoic membrane) model, a standard angiogenesis assay, was used to evaluate the ability of Compound 1 to inhibit angiogenesis. This model is an established model for evaluation of activity of a test compound to affect formulation of new blood vessels.
A filter disc saturated with a 0.5 μg/ml solution of basic fibroblast growth factor (bFGF) was placed on the CAM of 10 day old chick embryos to induce angiogenesis. Twenty four hours later, 0 to 1 μg of Compound 1, in a total volume of 100 μl of sterile PBS, was injected intravenously into the embryo. Approximately 48 hours later, the embryos were sacrificed and the filter discs and surrounding CAM tissue were excised for analysis. Angiogenesis was quantitated by counting the number of blood vessel branch points within the confined region of the filter [Brooks, P.C., et al, Methods in Molecular Biology 120:257-269 (1999)]. The angiogenic index is defined as the difference in the number of blood vessel branch points between an experimental group and the untreated, control embryos. Each experimental group contained 8 to 10 chicken embryos. A single administration of 1 μg of Compound 1 inhibited angiogenesis by 92% in this experiment.

The test system of test [2] is human fibrosarcoma cells (HT 1080). Put plainly: Growth of human HT1080 tumor cells in chick embryo model. Type of test: in vivo, chicken. The following applies: for Tumor wet weight: 7 days incubation. As for the experimental part: A chicken embryo model was used to evaluate the activity of Compound 1 to inhibit the growth of human tumor cells in vivo. A single cell suspension of human fibrosarcoma cells (HT 1080), containing 4×10^5 cells in a total volume of 40 μl, was applied to 10 day old chick embryos as described by Brooks, et al (“Brooks, P.C., et al, “Integrin αvβ3 Antagonists Promote Tumor Regression by Inducing Apoptosis of Angiogenic Blood Vessels”, Cell 79:1157-1164 (1994)). Twenty-four hours later 0 to 10 μg of Compound 1 was injected intravenously into the embryos. Following this single administration of compound, control and treated embryos were incubated for a total of 7 days and then sacrificed. Tumors were excised, trimmed free of surrounding CAM tissue, and weighed. Each experimental group contained 10 to 12 chicken embryos. A single dose of 10 μg of Compound 1 reduced tumor weight by approximately 65%.

Another test concerns the target Urokinase (Abbokinase) (Homo sapiens, UniProt P00749). Put plainly: Urokinase chromogenic substrate (S-2444) IC50 assay.

Structures are written as SMILES.

T1 sequence (P00750 36-562): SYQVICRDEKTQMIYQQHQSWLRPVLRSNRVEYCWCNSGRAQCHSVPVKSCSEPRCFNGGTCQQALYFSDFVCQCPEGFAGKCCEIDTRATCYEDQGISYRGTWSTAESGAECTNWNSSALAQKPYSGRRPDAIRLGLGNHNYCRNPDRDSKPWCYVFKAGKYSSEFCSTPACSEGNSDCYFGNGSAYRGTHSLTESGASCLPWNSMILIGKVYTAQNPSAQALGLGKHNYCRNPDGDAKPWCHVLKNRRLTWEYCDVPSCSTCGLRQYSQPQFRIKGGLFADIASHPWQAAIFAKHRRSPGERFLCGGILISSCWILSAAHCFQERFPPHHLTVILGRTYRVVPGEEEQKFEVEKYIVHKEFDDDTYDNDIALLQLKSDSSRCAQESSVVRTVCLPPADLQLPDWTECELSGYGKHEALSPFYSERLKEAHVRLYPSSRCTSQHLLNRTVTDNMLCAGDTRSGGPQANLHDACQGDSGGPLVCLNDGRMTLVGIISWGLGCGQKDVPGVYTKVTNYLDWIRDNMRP
Description for Urokinase (Abbokinase): The buffer used for all assays was HBSA (10 mM HEPES, pH 7.5, 150 mM sodium chloride, 0.1% bovine serum albumin).
The initial velocity of chromogenic substrate hydrolysis was measured by the change in absorbance at 405 nm using a Thermo Max® Kinetic Microplate Reader over a 5 minute period in which less than 5% of the added substrate was utilized.
The assay buffer was HBS (10mM HEPES, 150mM sodium chloride pH 7.4) with 0.1% BSA.

In the case of `CC(C)COC(=O)N[C@H](CO)C(=O)N[C@@H](C)C(=O)N[C@H](C=O)CCCNC(=N)N` [Compound 1, Isobutyloxycarbonyl-D-seryl-L-alanyl-argininal], the IC50 on Human rt-PA (Activase) is above 2.5 µM; at human plasmin, 0.25 to 2.5 µM; against Urokinase (Abbokinase), below 0.1 µM. Also, the “Angiogenic Index” value in test [1] (0.001 μg Compound 1) turned out to be 22; in test [1] (0.01 μg Compound 1) it was 8; in test [1] (1.0 μg Compound 1) it was 2. The “# of Blood Vessel Branch Points” value in test [1] (0.001 μg Compound 1 intravenously) was 35 +/− 5; in test [1] (0.01 μg Compound 1 intravenously), 21 +/− 5; in test [1] (1.0 μg Compound 1 intravenously), 15 +/− 1. In test [1] (single administration of 1 μg, intravenously), this compound had an inhibition of angiogenesis of 92%. Also, the Tumor wet weight in test [2] (1 μg single intravenous dose) was 174 ± 25 mg; in test [2] (10 μg single intravenous dose) it was 97 ± 15 mg. Besides, the “reduction of tumor weight” value in test [2] (single dose of 10 μg) is listed as “approximately 65%”.
